Measured values as given in ChEMBL document CHEMBL5608186, “Design, synthesis and structure-activity relationships of novel non-ketolides: 9-Oxime clarithromycin featured with seven-to thirteen-atom-length diamine linkers at 3-OH” (Eur J Med Chem, 2024).
Values after ≈ are worked out from the molar mass of the structure shown.

How the values were obtained:
Format in all cases: functional
[1] = system: Staphylococcus aureus; experiment: Selectivity ratio of MBC for methicillin-resistant Staphylococcus aureus PU 32 harboring i-ermA gene to MIC for methicillin-resistant Staphylococcus aureus PU 32 harboring i-ermA gene
[2] = system: Streptococcus pneumoniae; experiment: Bactericidal activity against Streptococcus pneumoniae ATCC 49619 incubated for 16 to 20 hrs by CLSI based broth microdilution method; settings: time 16-20 hrs
[3] = system: Haemophilus influenzae; experiment: Antibacterial activity against Haemophilus influenzae ATCC 49247 incubated for 16 to 20 hrs by CLSI based broth microdilution method; settings: time 16-20 hrs
[4] = system: Haemophilus influenzae; experiment: Selectivity ratio of MBC for Haemophilus influenzae ATCC 49247 to MIC for Haemophilus influenzae ATCC 49247
[5] = system: Staphylococcus aureus; experiment: Bactericidal activity against methicillin-resistant Staphylococcus aureus PU 32 harboring i-ermA gene incubated for 16 to 20 hrs by CLSI based broth microdilution method; settings: time 16-20 hrs
[6] = system: Streptococcus pneumoniae; experiment: Bactericidal activity against Streptococcus pneumoniae PU 09 harboring mef gene incubated for 16 to 20 hrs by CLSI based broth microdilution method; settings: time 16-20 hrs
[7] = system: Staphylococcus aureus; experiment: Antibacterial activity against methicillin-resistant Staphylococcus aureus PU 20 harboring c-ermA gene incubated for 16 to 20 hrs by CLSI based broth microdilution method; settings: time 16-20 hrs
[8] = system: Streptococcus pneumoniae; experiment: Bactericidal activity against Streptococcus pneumoniae 07P390 harboring c-erm gene incubated for 16 to 20 hrs by CLSI based broth microdilution method; settings: time 16-20 hrs
[9] = system: Streptococcus pneumoniae; experiment: Selectivity ratio of MBC for Streptococcus pneumoniae PU 09 harboring mef gene to MIC for Streptococcus pneumoniae PU 09 harboring mef gene
[10] = system: Streptococcus pneumoniae; experiment: Selectivity ratio of MBC for Streptococcus pneumoniae 07P390 harboring c-erm gene to MIC for Streptococcus pneumoniae 07P390 harboring c-erm gene
[11] = system: Streptococcus pyogenes; experiment: Selectivity ratio of MBC for Streptococcus pyogenes 01-968 harboring i-ermB gene to MIC for Streptococcus pyogenes 01-968 harboring i-ermB gene
[12] = system: Haemophilus influenzae; experiment: Bactericidal activity against Haemophilus influenzae ATCC 49247 incubated for 16 to 20 hrs by CLSI based broth microdilution method; settings: time 16-20 hrs
[13] = system: Streptococcus pneumoniae; experiment: Antibacterial activity against Streptococcus pneumoniae ATCC 49619 incubated for 16 to 20 hrs by CLSI based broth microdilution method; settings: time 16-20 hrs
[14] = system: Streptococcus pyogenes; experiment: Antibacterial activity against Streptococcus pyogenes 01-968 harboring i-ermB gene incubated for 16 to 20 hrs by CLSI based broth microdilution method; settings: time 16-20 hrs
[15] = system: Staphylococcus aureus; experiment: Bactericidal activity against methicillin-resistant Staphylococcus aureus PU 20 harboring c-ermA gene incubated for 16 to 20 hrs by CLSI based broth microdilution method; settings: time 16-20 hrs
[16] = system: Streptococcus pneumoniae; experiment: Selectivity ratio of MBC for Streptococcus pneumoniae ATCC 49619 to MIC for Streptococcus pneumoniae ATCC 49619
[17] = system: Streptococcus pneumoniae; experiment: Antibacterial activity against Streptococcus pneumoniae PU 09 harboring mef gene incubated for 16 to 20 hrs by CLSI based broth microdilution method; settings: time 16-20 hrs
[18] = system: Streptococcus pneumoniae; experiment: Antibacterial activity against Streptococcus pneumoniae 07P390 harboring c-erm gene incubated for 16 to 20 hrs by CLSI based broth microdilution method; settings: time 16-20 hrs
[19] = system: Streptococcus pyogenes; experiment: Bactericidal activity against Streptococcus pyogenes 01-968 harboring i-ermB gene incubated for 16 to 20 hrs by CLSI based broth microdilution method; settings: time 16-20 hrs
[20] = system: Staphylococcus aureus; experiment: Antibacterial activity against methicillin-resistant Staphylococcus aureus PU 32 harboring i-ermA gene incubated for 16 to 20 hrs by CLSI based broth microdilution method; settings: time 16-20 hrs
[21] = system: Staphylococcus aureus; experiment: Selectivity ratio of MBC for methicillin-resistant Staphylococcus aureus PU 20 harboring c-ermA gene to MIC for methicillin-resistant Staphylococcus aureus PU 20 harboring c-ermA gene

Question: How did the Selectivity ratio [1] turn out when `CC[C@H]1OC(=O)[C@H](C)[C@@H](OC(=O)CCNCCCCCCNc2cc3c(cc2F)c(=O)c(C(=O)O)cn3C2CC2)[C@H](C)[C@@H](O[C@@H]2O[C@H](C)C[C@H](N(C)C)[C@H]2O)[C@](C)(OC)C[C@@H](C)/C(=N\OC)[C@H](C)[C@H]2OC(=O)O[C@@]21C` was run?
Answer: Its Selectivity ratio is 4.

Question: And the MBC [2]?
Answer: Its MBC is 0.062 µg/mL (≈ 0.0585 µM).

Question: And the MIC [3]?
Answer: Its MIC is 256 µg/mL (≈ 241 µM).

Question: What about the Selectivity ratio [4] of the same compound?
Answer: Its Selectivity ratio is 1.

Question: What about the MBC [5] of the same compound?
Answer: Its MBC is 16 µg/mL (≈ 15.1 µM).

Question: What about the MBC [6] of the same compound?
Answer: Its MBC is 1 µg/mL (≈ 0.943 µM).

Question: What about the MIC [7] of the same compound?
Answer: Its MIC is 128 µg/mL (≈ 121 µM).

Question: What about the MBC [8] of the same compound?
Answer: The MBC was 4 µg/mL (≈ 3.77 µM).

Question: What about the Selectivity ratio [9] of the same compound?
Answer: Its Selectivity ratio is 2.

Question: What about the Selectivity ratio [10] of the same compound?
Answer: The Selectivity ratio was 4.

Question: And the Selectivity ratio [11]?
Answer: Its Selectivity ratio is >8.

Question: What about the MBC [12] of the same compound?
Answer: Its MBC is 256 µg/mL (≈ 241 µM).

Question: What about the MIC [13] of the same compound?
Answer: Its MIC is 0.062 µg/mL (≈ 0.0585 µM).

Question: And the MIC [14]?
Answer: The MIC was ≤ 0.008 µg/mL.

Question: What about the MBC [15] of the same compound?
Answer: The MBC was > 256 µg/mL.

Question: And the Selectivity ratio [16]?
Answer: The Selectivity ratio was 1.

Question: What about the MIC [17] of the same compound?
Answer: The MIC was 0.5 µg/mL (≈ 0.472 µM).

Question: What about the MIC [18] of the same compound?
Answer: Its MIC is 1 µg/mL (≈ 0.943 µM).

Question: What about the MBC [19] of the same compound?
Answer: The MBC was > 0.062 µg/mL.

Question: What about the MIC [20] of the same compound?
Answer: Its MIC is 4 µg/mL (≈ 3.77 µM).

Question: `CC[C@H]1OC(=O)[C@H](C)[C@@H](OC(=O)Cc2ccccn2)[C@H](C)[C@@H](O[C@@H]2O[C@H](C)C[C@H](N(C)C)[C@H]2O)[C@](C)(OC(=O)CCN2CCN(c3c(F)cc4c(=O)c(C(=O)O)cn(C5CC5)c4c3OC)CC2C)C[C@@H](C)CN(C)[C@H](C)[C@@H](O)[C@]1(C)O` (stereo not given in full) was tested. Which MBC [2] did it give?
Answer: Its MBC is 1 µg/mL (≈ 0.878 µM).

Question: What about the MIC [3] of the same compound?
Answer: Its MIC is 0.5 µg/mL (≈ 0.439 µM).

Question: What about the Selectivity ratio [4] of the same compound?
Answer: The Selectivity ratio was 1.

Question: And the MBC [5]?
Answer: Its MBC is > 256 µg/mL.

Question: And the MBC [6]?
Answer: Its MBC is 8 µg/mL (≈ 7.02 µM).

Question: What about the MIC [7] of the same compound?
Answer: Its MIC is 8 µg/mL (≈ 7.02 µM).

Question: What about the MBC [8] of the same compound?
Answer: Its MBC is 8 µg/mL (≈ 7.02 µM).

Question: What about the Selectivity ratio [9] of the same compound?
Answer: Its Selectivity ratio is 4.

Question: What about the Selectivity ratio [10] of the same compound?
Answer: Its Selectivity ratio is 1.

Question: And the Selectivity ratio [11]?
Answer: The Selectivity ratio was >8.

Question: And the MBC [12]?
Answer: Its MBC is 0.5 µg/mL (≈ 0.439 µM).

Question: What about the MIC [13] of the same compound?
Answer: Its MIC is 0.5 µg/mL (≈ 0.439 µM).

Question: And the MIC [14]?
Answer: Its MIC is 8 µg/mL (≈ 7.02 µM).

Question: What about the MBC [15] of the same compound?
Answer: Its MBC is 8 µg/mL (≈ 7.02 µM).

Question: What about the Selectivity ratio [16] of the same compound?
Answer: The Selectivity ratio was 2.

Question: And the MIC [17]?
Answer: The MIC was 2 µg/mL (≈ 1.76 µM).

Question: And the Selectivity ratio [21]?
Answer: The Selectivity ratio was 1.

Question: And the MIC [18]?
Answer: The MIC was 8 µg/mL (≈ 7.02 µM).

Question: And the MBC [19]?
Answer: Its MBC is > 64 µg/mL.

Question: What about the MIC [20] of the same compound?
Answer: Its MIC is 128 µg/mL (≈ 112 µM).

Question: Which results are given for `CC[C@H]1OC(=O)[C@H](C)[C@@H](OC(=O)CCN2CCN(c3cc4c(cc3F)c(=O)c(C(=O)O)cn4C3CC3)CC2)[C@H](C)[C@@H](O[C@@H]2O[C@H](C)C[C@H](N(C)C)[C@H]2O)[C@](C)(OC)C[C@@H](C)/C(=N\OC/C=C/c2cncc(C(=O)NC)c2)[C@H](C)[C@H]2OC(=O)O[C@@]21C`?
Answer: Selectivity ratio [1]: >4; MBC [2]: 0.06 µg/mL (≈ 0.0504 µM); MIC [3]: 4 µg/mL (≈ 3.36 µM); Selectivity ratio [4]: 1; MBC [5]: > 256 µg/mL; MBC [6]: 0.5 µg/mL (≈ 0.42 µM); MIC [7]: > 256 µg/mL; MBC [8]: > 16 µg/mL; Selectivity ratio [9]: 4; Selectivity ratio [10]: >8; Selectivity ratio [11]: >8; MBC [12]: 4 µg/mL (≈ 3.36 µM); MIC [13]: 0.03 µg/mL (≈ 0.0252 µM); MIC [14]: 8 µg/mL (≈ 6.72 µM); MBC [15]: > 256 µg/mL; Selectivity ratio [16]: 2; MIC [17]: 0.12 µg/mL (≈ 0.101 µM); MIC [18]: 2 µg/mL (≈ 1.68 µM); MBC [19]: > 64 µg/mL; MIC [20]: 64 µg/mL (≈ 53.8 µM)

Question: How did the Selectivity ratio [1] turn out when `CC[C@H]1OC(=O)[C@H](C)[C@@H](OC(=O)CCN2CCN(c3nc4c(cc3F)c(=O)c(C(=O)O)cn4CC)CC2)[C@H](C)[C@@H](O[C@@H]2O[C@H](C)C[C@H](N(C)C)[C@H]2O)[C@](C)(OC)C[C@@H](C)/C(=N\OCC#Cc2cncc(C(=O)NC)c2)[C@H](C)[C@H]2OC(=O)O[C@@]21C` was run?
Answer: Its Selectivity ratio is >4.

Question: What about the MBC [2] of the same compound?
Answer: The MBC was 0.03 µg/mL (≈ 0.0255 µM).

Question: What about the MIC [3] of the same compound?
Answer: The MIC was 32 µg/mL (≈ 27.2 µM).

Question: What about the Selectivity ratio [4] of the same compound?
Answer: Its Selectivity ratio is 1.

Question: And the MBC [5]?
Answer: The MBC was > 256 µg/mL.

Question: What about the MBC [6] of the same compound?
Answer: Its MBC is 0.25 µg/mL (≈ 0.212 µM).

Question: What about the MIC [7] of the same compound?
Answer: Its MIC is > 256 µg/mL.

Question: What about the MBC [8] of the same compound?
Answer: Its MBC is > 32 µg/mL.

Question: What about the Selectivity ratio [9] of the same compound?
Answer: Its Selectivity ratio is 4.

Question: And the Selectivity ratio [10]?
Answer: The Selectivity ratio was >8.

Question: What about the Selectivity ratio [11] of the same compound?
Answer: Its Selectivity ratio is >8.

Question: What about the MBC [12] of the same compound?
Answer: The MBC was 32 µg/mL (≈ 27.2 µM).

Question: And the MIC [13]?
Answer: The MIC was 0.03 µg/mL (≈ 0.0255 µM).

Question: What about the MIC [14] of the same compound?
Answer: The MIC was 4 µg/mL (≈ 3.4 µM).

Question: And the MBC [15]?
Answer: The MBC was > 256 µg/mL.

Question: What about the Selectivity ratio [16] of the same compound?
Answer: The Selectivity ratio was 1.

Question: What about the MIC [17] of the same compound?
Answer: The MIC was 0.06 µg/mL (≈ 0.051 µM).

Question: And the MIC [18]?
Answer: The MIC was 4 µg/mL (≈ 3.4 µM).

Question: And the MBC [19]?
Answer: The MBC was > 32 µg/mL.

Question: And the MIC [20]?
Answer: The MIC was 64 µg/mL (≈ 54.4 µM).
